Measured values from patent US20250381183A1, “TARGETING S100A9-ALDH1A1-RETINOIC ACID SIGNALING TO SUPPRESS BRAIN RELAPSE IN EGFR-MUTANT LUNG CANCER” (The Trustees of Columbia University in the City of New York, priority 2022, published 2025).

Assays:
RAR target gene STRA6 [1] = experiment: STRA6 expression by qRT-PCR in PC9-Tr-BrM cells; format: cell-based, human; settings: two days; for inhibition of retinol-induced STRA6 expression: 5 μM retinol and 5 μM antagonist
Method: (§1) FIG. 13A-FIG. 13B: STRA6 expression was determined by qRT-PCR analysis of Tr-BrM cells from the PC9 model (13(a)) and H1650 model (13(b)), which were treated with either DMSO, retinol or retinol plus different retinoic acid receptor antagonists. Cells were cultured for two days in serum-free RPMI medium with DMSO alone, with 5 μM retinol alone, or medium with both 5 μM retinol and 5 μM antagonists (either the RAR-α antagonist BMS-195614, the RAR-γ antagonist MM-11253, or the pan-RAR antagonist AGN-194310). After two days of culturing, cells were washed and collected for RNA analysis. GAPDH was measured as an internal control. […] For the PC9 model in 13(a), n=8 for vehicle; n=5 for retinol; n=3 for retinol plus the RAR-alpha inhibitor (“RAR-α-inh.”); n=3 for retinol plus the RAR-gamma inhibitor (“RAR-γ-inh.”); n=4 for retinol plus the pan-RAR inhibitor (“pan-RAR-inh.”). For the H1650 model in 13(b), n=7 for all groups.

RAR target gene STRA6 [2] = experiment: STRA6 expression by qRT-PCR in H1650-Tr-BrM cells; format: cell-based, human; settings: two days; for inhibition of retinol-induced STRA6 expression: 5 μM retinol and 5 μM antagonist
Method: as §1

H1975 = experiment: Cell viability assay, sensitivity to pan-RAR inhibition, H1975; format: cell-based, human; settings: H1975, lacks S100A9 and ALDH1A1 expression
Method: (§2) FIG. 13C: Cell viability assay for comparing in-vitro sensitivity of the indicated cell lines to pan-RAR-inhibition (AGN194310, abbreviated as “AGN”). Cell viability values are normalized to the vehicle (DMSO)-treated control, presented as the mean values±SEM, and representative of three independent experiments. P-values were determined by two-way ANOVA with Tukey's test.

HCC4006 = experiment: Cell viability assay, sensitivity to pan-RAR inhibition, HCC4006; format: cell-based, human; settings: HCC4006, lacks S100A9 and ALDH1A1 expression
Method: as §2

PC9-derivatives = experiment: Lung orthotopic (intrathoracic) implantation, PC9-derivatives, AGN194310 treatment; format: in vivo, mice; settings: PC9-derived, directly implanted in the lung, treated 2 weeks
H1650-derivatives = experiment: Lung orthotopic (intrathoracic) implantation, H1650-derivatives, AGN194310 treatment; format: in vivo, mice; settings: H1650-derived, directly implanted in the lung, treated 2 weeks
Method: FIG. 12K: Schematic representation of the experimental protocol for lung orthotopic injections. H1650-Tr-BrM-lung derivatives stably expressing either Lenti-Con, S100A9i, ALDH1A1i, or S100A9i plus ALDH1A1 o/e were injected in the lung (intrathoracic injections, labeled as “lung orthotopic injection” in the figure). Mice were euthanized at 21 days post tumor-cell injection for analysis.
FIG. 13P-FIG. 13Q: Violin plots depicting normalized photon flux of lung measured by bioluminescence imaging of mice. […] For panel (p): n=8 for Veh, and n=11 for Pan-RARi. For panel (q): n=7 for Veh, and n=8 for Pan-RARi.

PC9-Tr-BrM cells [3] = experiment: Treatment of PC9-Tr-BrM brain metastasis in mice with AGN194310 and/or osimertinib; settings: 0.5 mg/kg body weight/day, five days per week from day 25 to 7 weeks, vs vehicle and osimertinib alone
H1650-Tr-BrM cells [4] = experiment: Treatment of H1650-Tr-BrM brain metastasis in mice with AGN194310 and/or osimertinib; settings: 0.5 mg/kg body weight/day, five days per week from day 25 to 7 weeks, vs vehicle and osimertinib alone
PC9-Tr-BrM cells [5] = experiment: PC9-Tr-BrM (osimertinib-refractory) brain metastasis mouse model, vehicle or osimertinib; format: in vivo, immunodeficient mice; settings: PC9-Tr-BrM-injected mice, osimertinib vs vehicle
Method: FIG. 1E: Kaplan-Meier plot for brain-metastasis-progression-free survival of mice injected with PC9-Tr-BrM cells followed by treatment with either vehicle or osimertinib. Data were analyzed using the log-rank test: χ2=1.325, d.f.=1, p-value not significant (ns), n=20 for vehicle-treated mice and 17 for osimertinib-treated mice.
Mice were euthanized at 7 weeks post tumor-cell injection. Scale bars, 200 μm.
To understand the underlying mechanisms of brain relapse using this model, we isolated brain metastatic cells from the relapsed brain of osimertinib-treated mice and designated them PC9-Tr-BrM (Treated Brain Metastatic, FIG. 1d).

H1650-Tr-BrM cells [6] = experiment: H1650-Tr-BrM brain metastasis mouse model, vehicle or osimertinib; format: in vivo, immunodeficient mice; settings: H1650-Tr-BrM-injected mice
Method: . Data were analyzed using the log-rank test: χ2=2.541, d.f.=1, p-value not significant (ns), n=6 for vehicle-treated mice, and n=4 for osimertinib-treated mice.
. Arrow points to the location of metastatic cells in the brain. Mice were euthanized at 60 days post tumor-cell injection. Scale bars, 200 μm.
FIG. 8H: Quantitative analysis of the percentage of brain tissue sections covered by metastasis from the experiment described in panel (g). […]; We then isolated brain metastatic cells from the osimertinib-treated mice (designated H1650-Tr-BrM), injected them into the arterial circulation of naive immunodeficient mice and treated the mice with either vehicle or osimertinib.

phospho-EGFR (Tyr1068) [7] = experiment: phospho-EGFR immunostaining of brain sections, PC9-BrM model; format: in vivo, immunodeficient mice; settings: osimertinib 5 mg/kg/day vs vehicle
Excerpt: FIG. 2B: Brain sections from mice injected with PC9-BrM cells described in FIG. 1a-b were immunostained using an antibody against phospho-EGFR (Tyr1068). […] The endpoint for vehicle-treated mice was two months post tumor-cell injection (“Vehicle”). The endpoint for osimertinib-treated mice was 4 months post tumor-cell injection for micrometastases (“Micromet”) and 8 months post tumor-cell injection for relapsed metastatic lesion (“Relapsed Met”). For the osimertinib treatment group, mice were administered osimertinib by oral gavage. At 6 hours post treatment, mice were euthanized, and brain tissues were subsequently processed for histological analysis. Representative images of immunohistochemical staining for phospho-EGFR in brain sections are shown. Arrows point to, and dotted line surrounds, the location of metastatic cells in the brain.
FIG. 2C: The pEGFR-immunostained brain sections described in panel (b) were quantitated using automated Qu-Path software to count pEGFR-positive cancer cells that were identified by setting a threshold for signal intensity (1+).

phospho-EGFR (Tyr1068) [8] = experiment: phospho-EGFR immunostaining of brain sections, H1650-BrM model; format: in vivo, immunodeficient mice; settings: osimertinib 5 mg/kg/day vs vehicle
Excerpt: FIG. 9D: Brain sections from mice injected with H1650-BrM cells described in FIG. 8g-h were immunostained using an antibody against phospho-EGFR (Tyr1068). […] Mice were then euthanized, and brain tissues were subsequently processed for histological analysis. Representative images of immunohistochemical staining for phospho-EGFR in brain sections are shown. Dotted lines surround the location of metastatic cells in the brain. Scale bars, 100 μm.
FIG. 9E: The pEGFR-stained brain sections from the H1650-derived model described in panel (d) were quantitated using automated Qu-Path software to count pEGFR-positive cancer cells that were identified by setting a threshold for signal intensity (1+). Data are represented as mean values±SEM.

[9] = system: phospho-EGFR (Tyr1068), phospho-ERK (Thr202/Tyr204); settings: PC9-BrM and PC9-Tr-BrM, 6 hours post-treatment, similar in both
Excerpt: Antibodies against phospho-EGFR (Tyr1068), phospho-ERK (Thr202/Tyr204), total-EGFR, total-ERK and □-actin (loading control) were used. Data are representative of three independent experiments.

[10] = system: phospho-EGFR (Tyr1068), phospho-ERK; settings: H1650-BrM and H1650-Tr-BrM, 6 hours post treatment, similar in both
Excerpt: Antibodies against phospho-EGFR (Tyr1068), phospho-ERK, total-EGFR, total-ERK and β-actin (loading control) were used. Data are representative of three independent experiments.

EGFR-mutant lung cancer = settings: cited from earlier work
[11] = serum-free media, 5 μM retinol alone vs DMSO

## CCc1ccc(C2=CC(C)(C)Sc3ccc(C#Cc4ccc(C(=O)O)cc4)cc32)cc1 [AGN-194310]
RAR target gene STRA6 [1]
  inhibition of retinol-induced STRA6 expression: dramatically reduced
RAR target gene STRA6 [2]
  inhibition of retinol-induced STRA6 expression: dramatically reduced
H1975
  loss of viability: did not show dose-dependent loss of viability
HCC4006
  loss of viability: did not show dose-dependent loss of viability
PC9-derivatives
  lung lesions (normalized photon flux): modestly reduced
H1650-derivatives
  lung lesions (normalized photon flux): modestly reduced
PC9-Tr-BrM cells [3]
  brain metastasis (bioluminescence imaging and CK7 metastasis surface area): striking reduction
H1650-Tr-BrM cells [4]
  brain metastasis (bioluminescence imaging and CK7 metastasis surface area): striking reduction

## CC1(C)CC=C(c2cnc3ccccc3c2)c2cc(C(=O)Nc3ccc(C(=O)O)cc3)ccc21 [BMS195614]
RAR target gene STRA6 [1]
  inhibition of retinol-induced STRA6 expression: only modestly inhibited
RAR target gene STRA6 [2]
  inhibition of retinol-induced STRA6 expression: only modestly inhibited

## CC1(C)CCC(C)(C)c2cc(C3(c4ccc5cc(C(=O)O)ccc5c4)SCCS3)ccc21 [MM11253]
RAR target gene STRA6 [1]
  inhibition of retinol-induced STRA6 expression: only modestly inhibited
RAR target gene STRA6 [2]
  inhibition of retinol-induced STRA6 expression: only modestly inhibited

## C=CC(=O)Nc1cc(Nc2nccc(-c3cn(C)c4ccccc34)n2)c(OC)cc1N(C)CCN(C)C [osimertinib]
PC9-Tr-BrM cells [5]
  brain-metastasis-progression-free survival: no longer increased
H1650-Tr-BrM cells [6]; osimertinib vs vehicle
  brain-metastasis-progression-free survival: no longer prolonged
H1650-Tr-BrM cells [6]; vehicle or osimertinib
  mice with rapid progression to the brain: 100%
phospho-EGFR (Tyr1068) [7]
  p-EGFR in micro- and relapsed-metastatic brain lesions: significantly reduced
phospho-EGFR (Tyr1068) [8]
  p-EGFR in brain metastatic lesions: significantly reduced
[9]
  inhibition of EGFR and ERK phosphorylation: dose-dependent inhibition
[10]
  inhibition of EGFR and ERK phosphorylation: dose-dependent inhibition
EGFR-mutant lung cancer; first-line treatment, EGFR-mutant metastatic lung cancer patients
  median progression-free survival (PFS): 18.9 months
EGFR-mutant lung cancer; lung cancer patients treated with osimertinib
  patients with CNS progression: 20%

## retinal
RAR target gene STRA6 [1]; [11]
  STRA6 expression: significantly induced
RAR target gene STRA6 [2]; [11]
  STRA6 expression: significantly induced
